# Patent US20250179073A1, “TRICYCLIC HETEROCYCLE COMPOUNDS AS IAP ANTAGONISTS” (Ascentage Pharma (Suzhou) Co., Ltd., priority 2022, published 2025)
# Test system: MDA-MB-231 cells
# Experiment: Cell proliferation assay (CellTiter-Glo), MDA-MB-231
# Format: cell-based
# Settings: 72 h treatment, Celltiter-Glo luminescence
# Protocol: Example 238: Cell Proliferation Assay
# MDA-MB-231 and EVSA-T cells (10000 cells/well) were plated onto 96-well plates (Corning, Cat #3917) in 95 μL of medium (RPMI-1640 containing 10% FBS and MEM containing 10% FBS, respectively). Compounds with various concentrations ([…]) were added to the wells. After treatment for 72 h, 30 μL of Celltiter-Glo reagent (Promega, Cat #G7573) was added and incubated at room temperature for 15 min, then the luminescent signal was determined using a microplate reader (Biotek, SynergyH1). The inhibitor dose-response curves were analyzed using normalized IC50 regression curve fitting with control based normalization.
row,IC50 [nM],SMILES
1,530,"C[C@@H]1CN(CC(=O)N2CC(C)(C)c3c2cc(Cc2ccc(F)cc2)c2nc(N4C[C@@H](O)[C@H](O)C4)nn32)[C@@H](CN2CCOC[C@H]2C)CN1 [Compound 226, 1-(2-((3R,4R)-3,4-dihydroxypyrrolidin-1-yl)-4-(4-fluorobenzyl)-8,8-dimethyl-7,8-dihydro-6H-pyrrolo[2,3-e][1,2,4]triazolo[1,5-a]pyridin-6-yl)-2-((2R,5R)-5-methyl-2-(((R)-3-methylmorpholino)methyl)piperazin-1-yl)ethan-1-one]"

# Same assay, conditions: Homo sapiens, MDA-MB-231, 72 h, 72 h treatment, Celltiter-Glo luminescence
row,IC50 [nM],SMILES
1,610,"CCc1nnc2c(Cc3ccc(F)cc3)cc3c(n12)C(C)(C)CN3C(=O)CN1C[C@@H](C)NC[C@@H]1CN1CCOC[C@H]1C [Compound 172, 1-(1-ethyl-4-(4-fluorobenzyl)-8,8-dimethyl-7,8-dihydro-6H-pyrrolo[2,3-e][1,2,4]triazolo[4,3-a]pyridin-6-yl)-2-((2R,5R)-5-methyl-2-(((R)-3-methylmorpholino)methyl)piperazin-1-yl)ethan-1-one]"
2,710,"C[C@@H]1CN(CC(=O)N2CC(C)(C)c3c2cc(C(=O)c2ccc(F)cc2)c2ncnn32)[C@@H](CN2CCOC[C@H]2C)CN1 [Compound 139, 1-(4-(4-fluorobenzoyl)-8,8-dimethyl-7,8-dihydro-6H-pyrrolo[2,3-e][1,2,4]triazolo[1,5-a]pyridin-6-yl)-2-((2R,5R)-5-methyl-2-(((R)-3-methylmorpholino)methyl)piperazin-1-yl)ethan-1-one]"
3,430,"C[C@@H]1CN(CC(=O)N2CC(C)(C)c3c2cc(Cc2ccc(F)cc2)c2ncnn32)[C@@H](CN2CCN(C(N)=O)C[C@H]2C)CN1 [Compound 215, (R)-4-(((2R,5R)-1-(2-(4-(4-fluorobenzyl)-8,8-dimethyl-7,8-dihydro-6H-pyrrolo[2,3-e][1,2,4]triazolo[1,5-a]pyridin-6-yl)-2-oxoethyl)-5-methylpiperazin-2-yl)methyl)-3-methylpiperazine-1-carboxamide]"
4,150,"C[C@@H]1CN(CC(=O)N2CC(C)(C)c3c2cc(C(F)(F)C24CC(C(F)(F)F)(C2)C4)c2ncnn32)[C@@H](CN2CCOC[C@H]2C)CN1 [Compound 166, 1-(4-(difluoro(3-(trifluoromethyl)bicyclo[1.1.1]pentan-1-yl)methyl)-8,8-dimethyl-7,8-dihydro-6H-pyrrolo[2,3-e][1,2,4]triazolo[1,5-a]pyridin-6-yl)-2-((2R,5R)-5-methyl-2-(((R)-3-methylmorpholino)methyl)piperazin-1-yl)ethan-1-one]"
5,320,"C[C@@H]1CN(CC(=O)N2CC(C)(C)c3c2cc(Cc2ccc(F)cc2)n2cnnc32)[C@@H](CN2CCOC[C@H]2C)CN1 [Example 23, 1-(5-(4-fluorobenzyl)-9,9-dimethyl-8,9-dihydro-7H-pyrrolo[3,2-c][1,2,4]triazolo[4,3-a]pyridin-7-yl)-2-((2R,5R)-5-methyl-2-(((R)-3-methylmorpholino)methyl)piperazin-1-yl)ethan-1-one]"
6,7080,"C[C@@H]1CN(CC(=O)N2CC(C)(C)c3c2cc(Cc2ccc(F)cc2)c2ncnn32)[C@@H](CN2CCN(C)C(=O)[C@H]2C)CN1 [Compound 205, (R)-4-(((2R,5R)-1-(2-(4-(4-fluorobenzyl)-8,8-dimethyl-7,8-dihydro-6H-pyrrolo[2,3-e][1,2,4]triazolo[1,5-a]pyridin-6-yl)-2-oxoethyl)-5-methylpiperazin-2-yl)methyl)-1,3-dimethylpiperazin-2-one]"
7,450,"C[C@@H]1CN(CC(=O)N2CC(C)(C)c3c2cc(Cc2ccc(F)cc2)c2nnc(C(N)=O)n32)[C@@H](CN2CCOC[C@H]2C)CN1 [Compound 145, 4-(4-fluorobenzyl)-8,8-dimethyl-6-(2-((2R,5R)-5-methyl-2-(((R)-3-methylmorpholino)methyl)piperazin-1-yl)acetyl)-7,8-dihydro-6H-pyrrolo[2,3-e][1,2,4]triazolo[4,3-a]pyridine-1-carboxamide]"
8,720,"C[C@@H]1CN(CC(=O)N2CC(C)(C)c3c2cc(Cc2ccc(F)cc2F)c2nncn32)[C@@H](CN2CCOC[C@H]2C)CN1 [Compound 155, 1-(4-(2,4-difluorobenzyl)-8,8-dimethyl-7,8-dihydro-6H-pyrrolo[2,3-e][1,2,4]triazolo[4,3-a]pyridin-6-yl)-2-((2R,5R)-5-methyl-2-(((R)-3-methylmorpholino)methyl)piperazin-1-yl)ethan-1-one]"
9,1330,"Cc1nnc2c(Cc3ccc(F)cc3F)cc3c(n12)C(C)(C)CN3C(=O)CN1C[C@@H](C)NC[C@@H]1CN1CCOC[C@H]1C [Compound 156, 1-(4-(2,4-difluorobenzyl)-1,8,8-trimethyl-7,8-dihydro-6H-pyrrolo[2,3-e][1,2,4]triazolo[4,3-a]pyridin-6-yl)-2-((2R,5R)-5-methyl-2-(((R)-3-methylmorpholino)methyl)piperazin-1-yl)ethan-1-one]"
10,120,"C[C@@H]1CN(CC(=O)N2CC(C)(C)c3c2cc(Cc2ccc(F)cc2)c2ncnn32)[C@@H](CN2CC3CC2CO3)CN1 (stereo partly drawn) [Compound 78, 2-((2R,5R)-2-((2-oxa-5-azabicyclo[2.2.1]heptan-5-yl)methyl)-5-methylpiperazin-1-yl)-1-(4-(4-fluorobenzyl)-8,8-dimethyl-7,8-dihydro-6H-pyrrolo[2,3-e][1,2,4]triazolo[1,5-a]pyridin-6-yl)ethan-1-one]"
11,97,"CCc1ncc2c(Cc3ccc(F)cc3)cc3c(n12)C(C)(C)CN3C(=O)CN1C[C@@H](C)NC[C@@H]1CN1CCOC[C@H]1C [Example 4, 1-(1-ethyl-4-(4-fluorobenzyl)-8,8-dimethyl-7,8-dihydro-6H-imidazo[1,5-a]pyrrolo[2,3-e]pyridin-6-yl)-2-((2R,5R)-5-methyl-2-(((R)-3-methylmorpholino)methyl)piperazin-1-yl)ethan-1-one]"
12,36,"C[C@@H]1CN(CC(=O)N2CC(C)(C)c3c2cc(Cc2ccc(F)cc2)c2cnc(-c4ccc(F)cc4)n32)[C@@H](CN2CCOC[C@H]2C)CN1 [Example 8, 1-(4-(4-fluorobenzyl)-1-(4-fluorophenyl)-8,8-dimethyl-7,8-di hydro-6H-imidazo[1,5-a]pyrrolo[2,3-e]pyridin-6-yl)-2-((2R,5R)-5-methyl-2-(((R)-3-methylmorpholino)methyl)piperazin-1-yl)ethan-1-one]"
13,230,"C[C@@H]1CN(CC(=O)N2CC(C)(C)c3c2cc(Cc2ccc(F)cc2)c2nn(Cc4cccnn4)c(=O)n32)[C@@H](CN2CCOC[C@H]2C)CN1 [Compound 253, 4-(4-fluorobenzyl)-8,8-dimethyl-6-(2-((2R,5R)-5-methyl-2-(((R)-3-methylmorpholino)methyl)piperazin-1-yl)acetyl)-2-(pyridazin-3-ylmethyl)-2,6,7,8-tetrahydro-1H-pyrrolo[2,3-e][1,2,4]triazolo[4,3-a]pyridin-1-one]"
14,360,"C[C@@H]1CN(CC(=O)N2CC(C)(C)c3c2cc(Cc2ccc(F)cc2)c2nn(CC(C)(C)O)c(=O)n32)[C@@H](CN2C[C@@H]3C[C@H]2CO3)CN1 [Compound 283, 6-(2-((2R,5R)-2-(((1S,4S)-2-oxa-5-azabicyclo[2.2.1]heptan-5-yl)methyl)-5-methylpiperazin-1-yl)acetyl)-4-(4-fluorobenzyl)-2-(2-hydroxy-2-methylpropyl)-8,8-dimethyl-2,6,7,8-tetrahydro-1H-pyrrolo[2,3-e][1,2,4]triazolo[4,3-a]pyridin-1-one]"
15,3800,"C[C@@H]1CN(CC(=O)N2CC(C)(C)c3c2cc(Cn2ccc(F)cc2=O)c2ncnn32)[C@@H](CN2CCOC[C@H]2C)CN1 [Compound 151, 1-((8,8-dimethyl-6-(2-((2R,5R)-5-methyl-2-(((R)-3-methylmorpholino)methyl)piperazin-1-yl)acetyl)-7,8-dihydro-6H-pyrrolo[2,3-e][1,2,4]triazolo[1,5-a]pyridin-4-yl)methyl)-4-fluoropyridin-2(1H)-one]"
16,1000,"C[C@@H]1CN(CC(=O)N2CC(C)(C)c3c2cc(N2CCNc4cc(F)ccc42)c2ncnn32)[C@@H](CN2CCOC[C@H]2C)CN1 [Compound 198, 1-(4-(6-fluoro-3,4-dihydroquinoxalin-1(2H)-yl)-8,8-dimethyl-7,8-dihydro-6H-pyrrolo[2,3-e][1,2,4]triazolo[1,5-a]pyridin-6-yl)-2-((2R,5R)-5-methyl-2-(((R)-3-methylmorpholino)methyl)piperazin-1-yl)ethan-1-one]"
17,580,"CNC(=O)c1nc2c(Cc3ccc(F)cc3)cc3c(n2n1)C(C)(C)CN3C(=O)CN1C[C@@H](C)NC[C@@H]1CN1CCOC[C@H]1C [Compound 255, 4-(4-fluorobenzyl)-N,8,8-trimethyl-6-(2-((2R,5R)-5-methyl-2-(((R)-3-methylmorpholino)methyl)piperazin-1-yl)acetyl)-7,8-dihydro-6H-pyrrolo[2,3-e][1,2,4]triazolo[1,5-a]pyridine-2-carboxamide]"
18,47,"C[C@@H]1CN(CC(=O)N2CC(C)(C)c3c2cc(Cc2ccc(F)cc2)c2nc(N4CCNC4=O)nn32)[C@@H](CN2CCOC[C@H]2C)CN1 [Compound 248, 1-(4-(4-fluorobenzyl)-8,8-dimethyl-6-(2-((2R,5R)-5-methyl-2-(((R)-3-methylmorpholino)methyl)piperazin-1-yl)acetyl)-7,8-dihydro-6H-pyrrolo[2,3-e][1,2,4]triazolo[1,5-a]pyridin-2-yl)imidazolidin-2-one]"
19,260,"C[C@@H]1CN(CC(=O)N2CC(C)(C)c3c2cc(Cc2ccc(F)cc2)c2nn(C[C@@H]4COCCO4)c(=O)n32)[C@@H](CN2CCOC[C@H]2C)CN1 [Compound 233, 2-(((R)-1,4-dioxan-2-yl)methyl)-4-(4-fluorobenzyl)-8,8-di methyl-6-(2-((2R,5R)-5-methyl-2-(((R)-3-methylmorpholino)methyl)piperazin-1-yl)acetyl)-2,6,7,8-tetrahydro-1H-pyrrolo[2,3-e][1,2,4]triazolo[4,3-a]pyridin-1-one]"
